# Reference: patent US11541068B2, “HMO compositions and methods for reducing autism spectrum disorder symptoms” (Glycom A/S, priority 2017, dated 2023)
# Experiments:
# clostridia = details: children with regressive autism; 6-week oral course; cited from earlier work
# faecal microbiota = test: M-SHIME (M-TripleSHIME) in vitro gastrointestinal model: microbiota and bacterial metabolites; format: cell-based, human (healthy adult); details: proximal (PC) and distal (DC) colon reactor; means of three weekly samples
# Text: The impact of the HMOs on microbiota and bacterial metabolites was investigated in the M-SHIME® (M-TripleSHIME®) in vitro gastrointestinal model (Prodigest). The typical reactor setup of the M-TripleSHIME® consisted of a succession of four reactors simulating the different parts of the human gastrointestinal tract. The first two reactors were of the fill-and-draw principle to simulate different steps in food uptake and digestion, with peristaltic pumps adding a defined amount of SHIME feed (140 mL 3×/day) and pancreatic and bile liquid (60 ml 3×/day), respectively, to the stomach and small intestine compartment and emptying the respective reactors after specified intervals. The last two compartments were continuously stirred reactors with constant volume and pH control. […]
# The M-TripleSHIME® was run in four stages: • 1. […] The baseline microbial community composition and activity in the different reactors was determined by analysis of samples and was used as a reference. • 3. […]
# Sample of the liquids in each reactor were collected regularly (three times in a week, on day 1, day 3 and day 5) and were analysed for microbial metabolites and the composition of the resident microbial community. In particular, the bifidobacteria composition was analysed using ITS profiling.
Compound,children with significant improvement in neurobehavioral symptoms (clostridia),gastrointestinal symptoms (clostridia),"effect on branched SCFA and ammonia production, compared with 2′-FL (FIG. 1) (faecal microbiota)"
CN[C@H](CC(C)C)C(=O)N[C@H]1C(=O)N[C@@H](CC(N)=O)C(=O)N[C@H]2C(=O)N[C@H]3C(=O)N[C@H](C(=O)N[C@H](C(=O)O)c4cc(O)cc(O)c4-c4cc3ccc4O)[C@H](O)c3ccc(c(Cl)c3)Oc3cc2cc(c3O[C@@H]2O[C@H](CO)[C@@H](O)[C@H](O)[C@H]2O[C@H]2C[C@](C)(N)[C@H](O)[C@H](C)O2)Oc2ccc(cc2Cl)[C@H]1O [vancomycin],eight of the ten children,improvement,
"CC(=O)N[C@H]1[C@H](O[C@H]2[C@@H](O)[C@@H](CO)O[C@@H](O[C@H]3[C@H](O)[C@@H](O)C(O)O[C@@H]3CO)[C@@H]2O)O[C@H](CO)[C@@H](O[C@@H]2O[C@H](CO)[C@H](O)[C@H](O)[C@H]2O)[C@@H]1O (mixture of isomers) [LNnT, lacto-N-neotetraose]",,,similar
